Data on one compound can be found in patent US11285144B2, “Use of CDK8 inhibitors to treat diseases of inflammation and autoimmunity” (THE BROAD INSTITUTE, INC., priority 2016, dated 2022).

Entries after “also recorded” stand apart in the source; their conditions may differ.

Experiment [1] has as its system Zymosan A-stimulated BMDCs. The experiment is described as follows: Cytokine production by Zymosan A-stimulated BMDCs. The class given is cell-based, mouse. The source says:
Towards the goal of identifying new mechanisms of IL-10 regulation, 59,346 small molecules were screened for the ability to enhance IL-10 production by activated bone marrow-derived dendritic cells (BMDCs) using a high-throughput assay developed previously (Sundberg et al., PNAS 111:12468-12473, 2014). Compounds were derived from both commercial collections and structurally and skeletally diverse libraries prepared by diversity-oriented synthesis (DOS). More than 60 hit compounds were identified that reproducibly enhance IL-10 production in a concentration-dependent manner (Table 1). Three distinct chemotypes were prioritized for follow-up based on potency and an initial analysis of structure-activity relationship (SAR) with respect to core scaffold, stereochemistry and side chains (FIG. 2a).
(§1) The pyridinyl tetrahydroquinoline BRD6989 (10) emerged as a prioritized hit in the screen (FIG. 2a and Table 2). […] Thus, BRD6989 enhances IL-10 production in activated human and murine macrophages and dendritic cells by a mechanism that appears most pronounced following stimulation of toll-like receptors-7 (TLR7) and TLR8 by R848.

A further experiment concerns R848-stimulated BMDCs. In words: Cytokine production by R848-stimulated BMDCs. It is filed as cell-based, mouse.
Description: as §1
(§2) Pre-treatment with these CDK8/19 inhibitors recapitulated the IL-10 potentiating activity of BRD6989 in both BMDCs (FIG. 9b) along with human DCs derived from two independent donors in the context of R848 stimulation (FIGS. 9c and 10a).

In experiment [2] the test system is human, monocyte-derived DCs. The experiment is described as follows: IL-10 production in human monocyte-derived DCs stimulated with R848. It is filed as cell-based.
Description: as §1, §2

Another experiment has as its target Cyclin C/CDK8 (Homo sapiens, UniProt P49336). In words: Kinase activity of recombinant Cyclin C/CDK8. It is filed as biochemical. The note with it: recombinant complex. The source says:
(§3) Together, these kinase profiling, binding assay, enzyme inhibition and cell-based data identify the Mediator-associated kinases CDK8, and to a lesser degree CDK19, as molecular targets of BRD6989.

Experiment [3] addresses recombinant Cyclin C/CDK19 (Homo sapiens, UniProt Q9BWU1). The experiment is described as follows: Kinase activity of recombinant Cyclin C/CDK19. The note with it: recombinant complex. The class given is biochemical.
Description: as §3

The test system of experiment [4] is Cyclin B/CDK1, Cyclin A/CDK2, p35/CDK5, Cyclin H/CDK7, Cyclin T/CDK9. In words: Activity of other CDKs. The class given is biochemical. To be noted: CDKs involved in cell cycle regulation.
Description: (a) Binding of the indicated concentrations of BRD6989 to CDK8/Cyclin C complexes (each point corresponds to mean±S.D.; n=3 biological replicates from 1 independent experiment). (b-f) Effect of the indicated concentrations of BRD6989 on the activity of (b) Cyclin B/CDK1, (c) Cyclin A/CDK2, (d) p35/CDK5, (e) Cyclin H/CDK7, and (f) Cyclin T/CDK9 (each point corresponds to mean±S.D.; n=3 biological replicates from 1 independent experiment).
as §3

The subject of a further experiment is 414 kinases. The experiment is described as follows: Kinase profiling by binding and activity assays. The source says:
Given that the pyridine core of BRD6989 is a common kinase-binding motif (Xing et al., J Comput Aided Mol Des 28:13-23, 2014), its activity against 414 kinases was profiled using a series of binding and activity assays. […] Binding of BRD6989 to CDK8, and its paralog CDK19, was confirmed using an orthogonal kinase-profiling format.

Another experiment concerns STAT1. In words: STAT1 phosphorylation in IFNγ-stimulated BMDCs. It is filed as cell-based, mouse. To be noted: IFNγ-induced.
Description: as §3

Experiment [5] has as its system Cyclin C/CDK8 complexes in BMDCs. The experiment is described as follows: Cytokine production by R848-stimulated BMDCs from CcncΔ/Δ or Ccncf/f mice. It is filed as cell-based, mouse. As for the experimental part:
Next, to determine whether IL-10 potentiation by CDK8 inhibitors requires functional Cyclin C/CDK8 complexes, differentiation was performed of BMDCs from CcncΔ/Δ mice in which Cyclin C can be specifically disrupted in hematopoietic cells relative to Ccncf/f littermates, which lack the polyinosinic:polycytidylic acid (polyI:C)-responsive Mx1-Cre (Li et al., Nature Cell Biology 16; 1080, 2014) (FIG. 11a). […] The impaired response of BMDCs lacking Cyclin C to BRD6989 and dCA are consistent with a model in which CDK8 restrains IL-10 production during activation of wild type myeloid cells.

Experiment [6] deals with BMDMs. In words: Transcriptional profiling of stimulated BMDMs. It is filed as cell-based, mouse. As for the experimental part:
To define systematically the role of CDK8 during innate immune activation, the transcriptional responses elicited by dCA or BRD6989 following stimulation of BMDMs were profiled with a panel of 10 microbial ligands or Sendai virus for time points from 15 min to 4 hours. BMDMs were chosen for these experiments because, like human and mouse DCs, they upregulate IL-10 in response to CDK8 inhibition (FIG. 5c), and they have been previously studied using the multiplexed pathway reporter assay described below (O'Connell, et al., Cell Syst 2:323-34, 2016). In this experiment, the transcriptional responses elicited by BRD6989 and dCA were highly correlated (FIG. 12a), again supporting CDK8 as a principle cellular target of BRD6989.

In experiment [7] the test system is BMDMs. In words: TF-Seq pathway reporter assay in BMDMs. The class given is cell-based, mouse. As to the method:
To identify CDK8-responsive signaling pathways, an integrative genomics approach termed transcription factor sequencing (TF-Seq) was applied, in which consensus transcription factor binding sites drive expression of 58 reporter constructs bearing unique sequence tags (O'Connell et al., Cell Syst 2:323-34, 2016).
Given that c-Jun's ability to activate transcription is tightly regulated by phosphorylation, it was determined whether CDK8 inhibition affects c-Jun phosphorylation in activated BMDCs.
On the technique in general: Reporter assays use an easily measured gene product as a stand-in for the process of interest.

Chain of Cyclin C/CDK8 (P49336 whole entry, species assumed): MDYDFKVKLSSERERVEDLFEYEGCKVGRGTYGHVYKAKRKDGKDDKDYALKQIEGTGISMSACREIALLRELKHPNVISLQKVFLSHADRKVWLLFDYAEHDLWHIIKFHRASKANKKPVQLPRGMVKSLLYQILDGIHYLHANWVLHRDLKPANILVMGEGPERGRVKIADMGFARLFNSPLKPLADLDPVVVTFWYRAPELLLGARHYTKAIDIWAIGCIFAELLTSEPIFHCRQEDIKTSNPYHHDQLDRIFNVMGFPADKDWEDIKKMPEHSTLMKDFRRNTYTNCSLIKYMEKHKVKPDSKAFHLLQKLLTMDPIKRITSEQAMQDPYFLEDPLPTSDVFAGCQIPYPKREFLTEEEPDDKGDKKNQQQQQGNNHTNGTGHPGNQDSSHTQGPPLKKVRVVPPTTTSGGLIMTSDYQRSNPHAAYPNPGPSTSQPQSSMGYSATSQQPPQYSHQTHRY
Chain of Cyclin C/CDK8 (P24863 whole entry partner, species assumed): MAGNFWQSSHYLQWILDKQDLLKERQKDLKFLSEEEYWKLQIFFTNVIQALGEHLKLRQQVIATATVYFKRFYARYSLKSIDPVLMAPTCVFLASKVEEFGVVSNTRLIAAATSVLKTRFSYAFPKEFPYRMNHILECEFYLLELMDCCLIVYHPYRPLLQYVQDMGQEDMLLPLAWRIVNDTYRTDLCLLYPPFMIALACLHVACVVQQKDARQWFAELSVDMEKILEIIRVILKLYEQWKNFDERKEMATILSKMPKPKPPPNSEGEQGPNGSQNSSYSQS
Chain of recombinant Cyclin C/CDK19 (Q9BWU1 whole entry, species assumed): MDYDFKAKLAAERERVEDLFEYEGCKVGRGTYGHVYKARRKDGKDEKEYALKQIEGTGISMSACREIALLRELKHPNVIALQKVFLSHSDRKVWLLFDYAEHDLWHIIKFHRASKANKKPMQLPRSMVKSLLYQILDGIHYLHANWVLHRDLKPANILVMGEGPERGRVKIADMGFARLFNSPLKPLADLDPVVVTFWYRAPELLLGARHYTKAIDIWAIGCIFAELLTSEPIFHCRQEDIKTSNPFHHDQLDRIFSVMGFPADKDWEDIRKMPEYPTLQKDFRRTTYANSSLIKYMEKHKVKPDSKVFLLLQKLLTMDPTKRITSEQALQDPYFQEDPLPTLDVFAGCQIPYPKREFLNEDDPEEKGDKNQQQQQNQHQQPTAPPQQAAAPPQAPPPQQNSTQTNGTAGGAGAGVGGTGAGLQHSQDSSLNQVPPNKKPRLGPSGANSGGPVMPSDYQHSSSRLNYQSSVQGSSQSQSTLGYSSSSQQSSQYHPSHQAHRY
Chain of recombinant Cyclin C/CDK19 (P24863 whole entry partner, species assumed): as the sequence (P24863 whole entry partner, species assumed) above

Usually EC50 stands for the concentration giving half of the maximal effect. By IC50 is commonly meant the concentration at which inhibition is half-maximal. As to `CC1CCc2nc(N)c(C#N)c(-c3cccnc3)c2C1` (stereo not shown) [BRD6989], the EC50 in [1] (Mus musculus, BMDC, pre-treatment 48 hr, Zymosan A 18 hr, read-out: IL-10 production EC50) was around 1000 nM. The “production of IL-12p40” value in [1] (Zymosan A-induced) was “largely unchanged”. In addition, in experiment [1] (Zymosan A-induced), the “production of TNFα” value is listed as “largely unchanged”. Also, the “release of IL-6” value in experiment [1] (Zymosan A-induced) is reported as “suppressed”. Also, the “production of IL-1β” value in experiment [1] (Zymosan A-stimulated / activated BMDCs) was “largely unchanged”. Besides, the IL-1β production result in experiment [1] (stimulation with R848 or Zymosan A) was “minimally elevates IL-1β production”. Further, the IL-10 production result was “greater fold-increase in IL-10 production” in the experiment on R848-stimulated BMDCs and “up-regulated IL-10” in [2]. In addition, the IC50 at Cyclin C/CDK8 was around 500 nM; in experiment [3], above 30000 nM. Also, the “inhibition of several other CDKs” value in [4] is recorded as “not the activity of several CDKs involved in cell cycle regulation; also recorded: does not inhibit”. In the experiment with 414 kinases (both kinase profiling experiments), the “secondary targets in kinase profiling” value is “phosphatidylinositol-4,5-bisphosphate 3-kinases C2A (PI3KC2A) and PI3KCG as secondary targets”. Moreover, the kinase selectivity result with 414 kinases (kinase profiling) is reported as “remarkable selectivity”. The “JAK-mediated phosphorylation of STAT1 Y701” value with STAT1 is recorded as “did not affect”. For the same compound, the “phosphorylation of STAT1 at S727” value was “inhibited; also recorded: suppresses phosphorylation” in the experiment with STAT1 and “Dose dependent inhibition of CDK8 dependent” with STAT1 (listed as BRD-6989). Also, in experiment [5], the “IL-10 upregulation in Ccncf/f BMDCs” value is on record as “remained intact”. For the same compound, the “IL-10 upregulation in CcncΔ/Δ BMDCs” value in [5] (Cyclin C deleted) is “failed to upregulate IL-10”. Also, in experiment [5] (saturating concentrations), the “IL-6 production in CcncΔ/Δ BMDCs” value is reported as “no further reduction”. Moreover, the “expression of interferon-inducible genes Ifit2, Cxcl10 and Rsad2” value with BMDMs [6] was “reduced expression of the interferon-inducible genes Ifit2, Cxcl10 and Rsad2”. For the same compound, in the experiment on BMDMs [7] (2 hours after stimulation of BMDMs), the “STAT1:STAT2 reporter activity” value is “suppressed induction of STAT1:STAT2 activity”. For the same compound, the NF-κB activation entry with BMDMs [7] (all stimuli tested) is given as “suppressed NF-κB activation to a varying degree”.
